In patent EP4603105A1, “PHARMACEUTICAL COMPOSITION CONTAINING CYCLIC COMPOUND HAVING SELECTIVE KRAS INHIBITORY EFFECT AGAINST HRAS AND NRAS” (CHUGAI SEIYAKU KABUSHIKI KAISHA, priority 2022, dated 2024):
pIC50: −log10 of the molar value. *1 amine or outer side, *2 acyl side, *3 side chain or, on linkers, in order; H or OH if unused. Where a SMILES comes first, the peptide text is derived from it. Bridges are numbered along the chain shown (N, C = ends). [ ]: non-standard residue; d: D form. The star is where a group is joined. hPhe(3-Cl-4-CF3) = N[C@@H](CCc1ccc(C(F)(F)F)c(Cl)c1)C(=O)O; X19 = O=C([C@H](Cc1ccc(C(F)(F)F)cc1)N(CCCF)[*:1])[*:2]; NPrPhe(4-CF3) = CCCN[C@@H](Cc1ccc(C(F)(F)F)cc1)C(=O)O; NEtAsp = CCN([C@@H](CC(=O)[*:3])C(=O)[*:2])[*:1]; NMeGly(cPent) = CN[C@H](C(=O)O)C1CCCC1; Hyp = O=C(O)[C@@H]1C[C@@H](O)CN1; NEtLeu = CCN[C@@H](CC(C)C)C(=O)O; NMeD = CN[C@@H](CC(=O)O)C(=O)O; NMeL = CN[C@@H](CC(C)C)C(=O)O; Morpholide = C1CN(*)CCO1; NMeA = CN[C@@H](C)C(=O)O; Ac5c = NC1(C(=O)O)CCCC1; Aze = O=C(O)[C@@H]1CCN1; Ac4c = NC1(C(=O)O)CCC1; NEtG = CCNCC(=O)O; Sar = CNCC(=O)O

How the values were obtained:
[1] = molecular target: GDP-bound NRAS wild-type protein (Homo sapiens, UniProt P01111); test: Binding to NRAS by surface plasmon resonance (SPR), KD and KD ratio to KRAS
How it was run: (§1)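 Measured at 30°C: SPR with GDP-loaded, E. coli-expressed biotin-Avi RAS captured (~100–300 RU), ascending 75 s compound injections, HBS pH 7.4 with GDP, MgCl2, 4% DMSO. KD from 1:1 fit.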

[2] = system: human lung cancer strain NCI-H441; assay type: cell-based
How it was run: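 Signal came from […] measured per well once the reagent was added. Beforehand, cells were cultured at 37°C and 5% carbon dioxide on a compound series serially diluted in dimethyl sulfoxide.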

[3] = molecular target: HRAS wild-type protein (Homo sapiens, UniProt P01112); test: Binding to HRAS by surface plasmon resonance (SPR), KD and KD ratio to KRAS
How it was run: as §1

[4] = ratio of KD value for GDP-bound NRAS wild-type protein to KD value for KRAS (SPR)
[5] = ratio of KD value for HRAS wild-type protein to KD value for KRAS (SPR)
[6] = ratio of the KD value with respect to GDP-bound NRAS wild-type protein to the KD value with respect to KRAS
[7] = ratio of the KD value with respect to HRAS wild-type protein to the KD value with respect to KRAS
[8] = ratio of KD for GDP-bound NRAS wild-type protein to KD for KRAS
[9] = ratio of KD for HRAS wild-type protein to KD for KRAS

HRAS wild-type protein, sequence (P01112 whole entry): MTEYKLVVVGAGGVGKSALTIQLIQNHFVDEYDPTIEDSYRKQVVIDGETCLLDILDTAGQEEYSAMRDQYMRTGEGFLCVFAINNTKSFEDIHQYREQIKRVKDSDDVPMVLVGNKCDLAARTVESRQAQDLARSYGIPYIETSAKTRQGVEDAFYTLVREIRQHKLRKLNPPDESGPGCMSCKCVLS
GDP-bound NRAS wild-type protein, sequence (P01111 whole entry): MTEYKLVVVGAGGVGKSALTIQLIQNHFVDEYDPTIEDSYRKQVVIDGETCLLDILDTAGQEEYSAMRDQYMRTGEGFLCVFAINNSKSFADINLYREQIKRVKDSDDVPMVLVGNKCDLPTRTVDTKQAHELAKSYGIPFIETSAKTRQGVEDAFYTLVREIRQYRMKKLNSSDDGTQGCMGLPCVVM

pIC50 [2]	SMILES	NRAS /KRAS [1, 4]	HRAS /KRAS [3, 5]	NRAS /KRAS [1, 6]	HRAS /KRAS [3, 7]	NRAS /KRAS [1, 8]	HRAS /KRAS [3, 9]
8.42	CC[C@H](C)[C@@H]1NC(=O)[C@H](CC(F)F)N(C)C(=O)C[C@@H](C(=O)N(C)C)N(C)C(=O)[C@H](C2CCCC2)N(C)C(=O)C2(CC(C)(C)C2)NC(=O)[C@@H]2C[C@H](C)CN2C(=O)[C@H](CCc2cc(F)c(C(F)(F)F)c(F)c2)NC(=O)CN(C)C(=O)[C@H](Cc2ccc(C(F)(F)F)cc2)N2CC/C=C\C[C@@H](C2=O)N(C)C(=O)CN(C)C1=O [PP1658]	A (a compound having 10 or more and less than 20 is denoted as A)	A (a compound having 10 or more and less than 20 is denoted as A)	–	–	–	–
8.51	CCC[C@H]1C(=O)N[C@@H]([C@@H](C)CC)C(=O)N(C)CC(=O)N(C)[C@H]2C/C=C\CCN(C2=O)[C@@H](Cc2ccc(C(F)(F)F)cc2)C(=O)N(C)CC(=O)N[C@@H](CCc2ccc(C(F)(F)F)c(Cl)c2)C(=O)N2C[C@H](OCC)C[C@H]2C(=O)NC2(CC(C)(C)C2)C(=O)N(C)[C@@H](C2CCCC2)C(=O)N(C)[C@H](C(=O)N(C)C)CC(=O)N1C [PP1748]	A (a compound having 10 or more and less than 20 is denoted as A)	B (a compound having 3 or more and less than 10 is denoted as B)	–	–	–	–
7.48	CC[C@H](C)[C@@H]1NC(=O)[C@H](CC)N(C)C(=O)C[C@@H](C(=O)N(C)C)N(C)C(=O)[C@H](C2CCCC2)N(C)C(=O)C2(CCC2)NC(=O)[C@@H]2CCN2C(=O)[C@H](CCc2cc(F)c(C(F)(F)F)c(F)c2)NC(=O)CN(C)C(=O)[C@H](Cc2ccc(C(F)(F)F)cc2)N2CCCC[C@@H](C2=O)N(C)C(=O)CN(C)C1=O [PP0657]	–	–	B (a compound having 3 or more and less than 10 is denoted as B)	B (a compound having 3 or more and less than 10 is denoted as B)	–	–
7.38	CCCN1C(=O)CN(C)C(=O)CN(CC)C(=O)[C@H]([C@@H](C)CC)NC(=O)[C@H](CC(C)C)N(C)C(=O)C[C@@H](C(=O)N2CCOCC2)NC(=O)[C@H](C2CCCC2)N(C)C(=O)C2(CCCC2)NC(=O)[C@@H]2C[C@@H](OCC)CN2C(=O)[C@H](CCc2ccc(C(F)(F)F)c(Cl)c2)NC(=O)CN(C)C(=O)[C@@H]1Cc1ccc(C(F)(F)F)cc1 [PP0335] ([NMeL]I[NEtG][Sar][NPrPhe(4-CF3)][Sar][hPhe(3-Cl-4-CF3)][Hyp](Et)[Ac5c][NMeGly(cPent)]D-Morpholide; lactam N-11)	–	–	–	–	B (a compound having 3 or more and less than 10 is denoted as B)	C (A compound having a KD ratio of 0.1 or more and less than 3 is denoted as C)
8.08	CC[C@H](C)[C@@H]1NC(=O)[C@H](CC2CC2)N(C)C(=O)C[C@@H](C(=O)N(C)C)N(C)C(=O)[C@H](C2CCCC2)N(C)C(=O)C2(CCCC2)NC(=O)[C@@H]2CC(F)(F)CN2C(=O)[C@H](CCc2cc(F)c(C(F)(F)F)c(F)c2)NC(=O)CN(C)C(=O)[C@H](Cc2ccc(C(F)(F)F)cc2)N2CC/C=C\C[C@@H](C2=O)N(C)C(=O)CN(C)C1=O [PP1513]	A (a compound having 10 or more and less than 20 is denoted as A)	A (a compound having 10 or more and less than 20 is denoted as A)	–	–	–	–
7.96	CCCN1C(=O)CN(C)C(=O)CNC(=O)[C@H]([C@@H](C)CC)NC(=O)[C@H](CC(C)C)N(CC)C(=O)C[C@@H](C(=O)N2CCOCC2)N(C)C(=O)[C@H](C2CCCC2)N(C)C(=O)C2(CCCC2)NC(=O)[C@@H]2CCCN2C(=O)[C@H](CCc2ccc(C(F)(F)F)c(Cl)c2)NC(=O)CN(C)C(=O)[C@@H]1Cc1ccc(C(F)(F)F)cc1 [PP1967] ([NEtLeu]IG[Sar][NPrPhe(4-CF3)][Sar][hPhe(3-Cl-4-CF3)]P[Ac5c][NMeGly(cPent)][NMeD]-Morpholide; lactam N-11)	–	–	B (a compound having 3 or more and less than 10 is denoted as B)	B (a compound having 3 or more and less than 10 is denoted as B)	–	–
6.92	CCC[C@H]1C(=O)N[C@@H]([C@@H](C)CC)C(=O)N(C2CC2)CC(=O)N(C)[C@H]2C/C=C\CCN(C2=O)[C@@H](Cc2ccc(C)cc2)C(=O)N(C)CC(=O)N[C@@H](CCc2ccc(C(F)(F)F)c(OC)c2)C(=O)N2C[C@H](OCC)C[C@H]2C(=O)NC2(CC(C)(C)C2)C(=O)N(C)[C@@H](CC2CC2)C(=O)N(C)[C@H](C(=O)N(C)C)CC(=O)N1C [PP2803]	–	–	–	–	A (a compound having 10 or more and less than 20 is denoted as A)	A (a compound having 10 or more and less than 20 is denoted as A)
8.07	CCCN1C(=O)[C@@H]2CCN2C(=O)[C@H](C)N(C)C(=O)[C@H]([C@@H](C)CC)NC(=O)[C@H](CC(C)C)N(C)C(=O)C[C@@H](C(=O)N(C)C)N(CC)C(=O)[C@H](C2CCCC2)N(C)C(=O)C2(CCC2)NC(=O)[C@@H]2CCCN2C(=O)[C@H](CCc2ccc(C(F)(F)F)c(Cl)c2)NC(=O)CN(C)C(=O)[C@@H]1Cc1ccc(C(F)(F)F)cc1 [PP1957] ([NMeL]I[NMeA][Aze][NPrPhe(4-CF3)][Sar][hPhe(3-Cl-4-CF3)]P[Ac4c][NMeGly(cPent)][NEtAsp]-NMe2; lactam N-11)	–	–	C (A compound having a KD ratio of 0.1 or more and less than 3 is denoted as C)	B (a compound having 3 or more and less than 10 is denoted as B)	–	–
8.32	CC[C@H](C)[C@@H]1NC(=O)[C@H](CC(C)C)N(C)C(=O)C[C@@H](C(=O)N2CCOCC2)N(C)C(=O)[C@H](C2CCCC2)N(C)C(=O)C2(CCCC2)NC(=O)[C@@H]2CCCN2C(=O)[C@H](CCc2ccc(C(F)(F)F)c(Cl)c2)NC(=O)CN(C)C(=O)[C@H](Cc2ccc(C(F)(F)F)cc2)N(CCCF)C(=O)CN(C)C(=O)CN(C)C1=O [PP0524] ([NMeL]I[Sar][Sar][X19][Sar][hPhe(3-Cl-4-CF3)]P[Ac5c][NMeGly(cPent)][NMeD]-Morpholide; lactam N-11)	–	–	B (a compound having 3 or more and less than 10 is denoted as B)	C (A compound having a KD ratio of 0.1 or more and less than 3 is denoted as C)	–	–
8.29	CCCN1C(=O)CN(C)C(=O)CN(CC)C(=O)[C@H]([C@@H](C)CC)NC(=O)[C@H](CC(C)C)N(C)C(=O)C[C@@H](C(=O)N2CCOCC2)N(C)C(=O)[C@H](C2CCCC2)N(C)C(=O)C2(CCC2)NC(=O)[C@@H]2C[C@@H](OCC)CN2C(=O)[C@H](CCc2ccc(C(F)(F)F)c(Cl)c2)NC(=O)CN(C)C(=O)[C@@H]1Cc1ccc(C(F)(F)F)cc1 [PP0401] ([NMeL]I[NEtG][Sar][NPrPhe(4-CF3)][Sar][hPhe(3-Cl-4-CF3)][Hyp](Et)[Ac4c][NMeGly(cPent)][NMeD]-Morpholide; lactam N-11)	–	–	B (a compound having 3 or more and less than 10 is denoted as B)	B (a compound having 3 or more and less than 10 is denoted as B)	–	–

SMILES	pIC50 [2]	NRAS /KRAS [1, 4]	HRAS /KRAS [3, 5]	NRAS /KRAS [1, 6]	HRAS /KRAS [3, 7]	NRAS /KRAS [1, 8]	HRAS /KRAS [3, 9]
CCC[C@H]1C(=O)N[C@@H]([C@@H](C)CC)C(=O)N(C2CC2)CC(=O)N(C)[C@H]2C/C=C\CCN(C2=O)[C@@H](Cc2ccc(C)cc2)C(=O)N(C)CC(=O)N[C@@H](CCc2cc(C)c(C(F)F)c(F)c2)C(=O)N2C[C@H](OCC)C[C@H]2C(=O)NC2(CC(C)(C)C2)C(=O)N(C)[C@@H](C2CCCC2)C(=O)N(C)[C@H](C(=O)N(C)C)CC(=O)N1C [PP2874]	7.36	–	–	–	–	A (a compound having 10 or more and less than 20 is denoted as A)	A (a compound having 10 or more and less than 20 is denoted as A)
